In the supplement of paper PMC8612539:
In brackets after ≈: the same amount, converted by molar mass.

Assays:
Mannheimia haemolytica = test: minimum inhibitory concentration (MIC)
Procedure: (§1)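 Broth microdilution MIC (Sensititre BOPO7F bovine plate, CLSI methods) of 19 antimicrobials against field isolates of P. multocida, M. haemolytica, H. somni (deep nasopharyngeal swabs) and E. coli, Enterococcus spp. (rectal swabs) from weaned dairy heifers. Incubation 16-24 h at 35 C. MIC is the lowest concentration preventing visible growth. Values with <= or > lie at the tested range limits. Trimethoprim-sulfamethoxazole is given as the trimethoprim component of a 1:19 mixture.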

Enterococcus spp. = test: minimum inhibitory concentration (MIC)
Procedure: as §1

CO/N=C(\C(=O)N[C@@H]1C(=O)N2C(C(=O)O)=C(CSC(=O)c3ccco3)CS[C@H]12)c1csc(N)n1 [Ceftiofur]
minimum inhibitory concentration [µg/mL]
Conditions | Enterococcus spp. | Mannheimia haemolytica
isolate (source animal id): 2 | > 8 | –
isolate (source animal id): 8 | – | ≤ 0.25
isolate (source animal id): 13 | – | ≤ 0.25
isolate (source animal id): 18 | – | ≤ 0.25
isolate (source animal id): 21 | – | ≤ 0.25
isolate (source animal id): 25 | – | ≤ 0.25
isolate (source animal id): 27 | – | ≤ 0.25
isolate (source animal id): 28 | – | 2 (≈ 3.82 µM)
isolate (source animal id): 30 | – | ≤ 0.25
isolate (source animal id): 31 | – | ≤ 0.25
isolate (source animal id): 32 | – | ≤ 0.25
isolate (source animal id): 34 | – | ≤ 0.25
isolate (source animal id): 35 | > 8 | –
isolate (source animal id): 36 | – | ≤ 0.25
isolate (source animal id): 37 | – | ≤ 0.25
isolate (source animal id): 40 | – | ≤ 0.25
isolate (source animal id): 41 | – | ≤ 0.25
isolate (source animal id): 42 | 8 (≈ 15.3 µM) | –
isolate (source animal id): 43 | – | ≤ 0.25
isolate (source animal id): 44 | 2 (≈ 3.82 µM) | –
isolate (source animal id): 46 | – | ≤ 0.25
isolate (source animal id): 49 | – | ≤ 0.25
isolate (source animal id): 50 | – | ≤ 0.25
isolate (source animal id): 51 | – | ≤ 0.25
isolate (source animal id): 52 | – | ≤ 0.25
isolate (source animal id): 53 | – | ≤ 0.25
isolate (source animal id): 55 | – | ≤ 0.25
isolate (source animal id): 56 | – | ≤ 0.25
isolate (source animal id): 57 | – | ≤ 0.25
isolate (source animal id): 79 | 4 (≈ 7.64 µM) | –
isolate (source animal id): 88 | 0.5 (≈ 0.955 µM) | –
isolate (source animal id): 91 | 0.5 (≈ 0.955 µM) | –
isolate (source animal id): 92 | > 8 | –
isolate (source animal id): 100 | – | ≤ 0.25
isolate (source animal id): 103 | – | ≤ 0.25
isolate (source animal id): 107 | – | ≤ 0.25
isolate (source animal id): 108 | – | ≤ 0.25
isolate (source animal id): 111 | 0.5 (≈ 0.955 µM) | –
isolate (source animal id): 112 | – | ≤ 0.25
isolate (source animal id): 113 | – | ≤ 0.25
isolate (source animal id): 121 | – | ≤ 0.25
isolate (source animal id): 122 | > 8 | ≤ 0.25
isolate (source animal id): 123 | > 8 | ≤ 0.25
isolate (source animal id): 126 | – | ≤ 0.25
isolate (source animal id): 133 | > 8 | ≤ 0.25
isolate (source animal id): 135 | – | ≤ 0.25
isolate (source animal id): 138 | – | ≤ 0.25
isolate (source animal id): 141 | – | ≤ 0.25
isolate (source animal id): 142 | – | ≤ 0.25
isolate (source animal id): 145 | – | ≤ 0.25
isolate (source animal id): 149 | – | ≤ 0.25
isolate (source animal id): 151 | – | ≤ 0.25
isolate (source animal id): 152 | – | ≤ 0.25
isolate (source animal id): 154 | – | ≤ 0.25
isolate (source animal id): 158 | > 8 | –
isolate (source animal id): 159 | – | ≤ 0.25
isolate (source animal id): 162 | – | ≤ 0.25
isolate (source animal id): 168 | > 8 | –
isolate (source animal id): 169 | > 8 | –
isolate (source animal id): 170 | – | ≤ 0.25
isolate (source animal id): 171 | > 8 | ≤ 0.25
isolate (source animal id): 172 | – | ≤ 0.25
isolate (source animal id): 173 | – | ≤ 0.25
isolate (source animal id): 175 | > 8 | –
isolate (source animal id): 177 | > 8 | –
isolate (source animal id): 179 | – | ≤ 0.25
isolate (source animal id): 180 | – | ≤ 0.25
isolate (source animal id): 181 | > 8 | –
isolate (source animal id): 182 | > 8 | –
isolate (source animal id): 183 | 4 (≈ 7.64 µM) | ≤ 0.25
isolate (source animal id): 186 | – | ≤ 0.25
isolate (source animal id): 187 | > 8 | ≤ 0.25
isolate (source animal id): 188 | – | ≤ 0.25
isolate (source animal id): 190 | > 8 | ≤ 0.25
isolate (source animal id): 191 | – | ≤ 0.25
isolate (source animal id): 192 | – | ≤ 0.25
isolate (source animal id): 194 | > 8 | –
isolate (source animal id): 195 | > 8 | –
isolate (source animal id): 197 | 4 (≈ 7.64 µM) | –
isolate (source animal id): 201 | – | ≤ 0.25
isolate (source animal id): 202 | – | ≤ 0.25
isolate (source animal id): 209 | – | ≤ 0.25
isolate (source animal id): 211 | > 8 | ≤ 0.25
isolate (source animal id): 214 | 8 (≈ 15.3 µM) | –
isolate (source animal id): 220 | – | ≤ 0.25
isolate (source animal id): 221 | – | ≤ 0.25
isolate (source animal id): 222 | > 8 | –
isolate (source animal id): 223 | > 8 | ≤ 0.25
isolate (source animal id): 228 | > 8 | –
isolate (source animal id): 230 | > 8 | –
isolate (source animal id): 233 | – | ≤ 0.25
isolate (source animal id): 235 | > 8 | –
isolate (source animal id): 236 | > 8 | –
isolate (source animal id): 237 | – | ≤ 0.25
isolate (source animal id): 239 | 2 (≈ 3.82 µM) | –
isolate (source animal id): 241 | > 8 | ≤ 0.25
isolate (source animal id): 244 | > 8 | –
isolate (source animal id): 246 | > 8 | –
isolate (source animal id): 247 | > 8 | –
isolate (source animal id): 250 | > 8 | –
isolate (source animal id): 252 | > 8 | ≤ 0.25
isolate (source animal id): 253 | – | ≤ 0.25
isolate (source animal id): 259 | – | ≤ 0.25
isolate (source animal id): 260 | – | ≤ 0.25
isolate (source animal id): 262 | – | ≤ 0.25
isolate (source animal id): 268 | 0.5 (≈ 0.955 µM) | –
isolate (source animal id): 282 | > 8 | ≤ 0.25
isolate (source animal id): 285 | > 8 | –
isolate (source animal id): 287 | – | ≤ 0.25
isolate (source animal id): 288 | – | ≤ 0.25
isolate (source animal id): 289 | 8 (≈ 15.3 µM) | –
isolate (source animal id): 290 | 8 (≈ 15.3 µM) | –
isolate (source animal id): 291 | – | ≤ 0.25
isolate (source animal id): 293 | – | ≤ 0.25
isolate (source animal id): 296 | > 8 | –
isolate (source animal id): 298 | ≤ 0.25 | ≤ 0.25
isolate (source animal id): 299 | – | ≤ 0.25
isolate (source animal id): 300 | – | ≤ 0.25
isolate (source animal id): 301 | 8 (≈ 15.3 µM) | –
isolate (source animal id): 302 | – | ≤ 0.25
isolate (source animal id): 304 | – | ≤ 0.25
isolate (source animal id): 306 | – | ≤ 0.25
isolate (source animal id): 308 | – | ≤ 0.25
isolate (source animal id): 309 | – | ≤ 0.25
isolate (source animal id): 310 | > 8 | –
isolate (source animal id): 313 | – | ≤ 0.25
isolate (source animal id): 318 | – | ≤ 0.25
isolate (source animal id): 320 | 8 (≈ 15.3 µM) | ≤ 0.25
isolate (source animal id): 321 | – | ≤ 0.25
isolate (source animal id): 323 | – | ≤ 0.25
isolate (source animal id): 324 | – | ≤ 0.25
isolate (source animal id): 326 | – | ≤ 0.25
isolate (source animal id): 328 | – | ≤ 0.25
isolate (source animal id): 329 | – | ≤ 0.25
isolate (source animal id): 331 | 2 (≈ 3.82 µM) | –
isolate (source animal id): 333 | 2 (≈ 3.82 µM) | ≤ 0.25
isolate (source animal id): 335 | – | ≤ 0.25
isolate (source animal id): 338 | – | ≤ 0.25
isolate (source animal id): 341 | 2 (≈ 3.82 µM) | –
